Assay results reported in patent publication US20030044399A1, “Method of treatment” (SmithKline Beecham Corporation, priority 1998, published 2003).
Where two headings read alike, the source gives them in different places.

Key:
[1] = target: Rhodazain (Trypanosoma brucei rhodesiense, UniProt Q95PM0); experiment: Cysteine protease inhibition, progress curve method, rhodazain; type: biochemical, Trypanosoma brucei rhodesiensi; conditions: 10 uM Cbz-Leu-Arg-AMC, 100 mM Na acetate pH 5.5, 5 mM cysteine
Description: (§1) Standard assay conditions for the determination of kinetic constants used 10 uM fluorogenic peptide substrate, Cbz-Phe-Arg-AMC for the cysteine proteases from Leishmania spp and Schistosoma Mansoni, Cbz-Leu-Arg-AMC for the cysteine proteases from Plasmodium falciparum and Trypanosoma brucei rhodesiensi, and Ac-Lys-Glu-Lys-Leu-Arg-AMC (4 uM final substrate concentration) for the cysteine protease from Trypoanosoma cruzi, and were determined in 100 mM Na acetate at pH 5.5 containing 5 mM cysteine. Stock substrate solutions were prepared at concentrations of […] in DMSO with 10 uM (4 uM for Ac-Lys-Glu-Lys-Leu-Arg-AMC) final substrate concentration in the assays. The final DMSO concentration was 2% and the final volume was 100 uL. All assays were conducted at ambient temperature. Product progress curves were generated over 20 to 30 minutes following formation of AMC product.
(§2) Potential inhibitors were evaluated using the progress curve method. Assays were carried out in the presence of variable concentrations of test compound. Reactions were initiated by addition of enzyme to buffered solutions of inhibitor and substrate. Data analysis was conducted according to one of two procedures depending on the appearance of the progress curves in the presence of inhibitors. For those compounds whose progress curves were linear, apparent inhibition constants (Ki,app) were calculated according to equation 1 (Brandt et al., Biochemitsry, 1989, 28, 140):
(§3) v=VmA/[Ka(1+I/Ki,app)+A] (1)
(§4) Where v is the velocity of the reaction with maximal velocity Vm, A is the concentration of substrate with Michaelis constant of Ka, and I is the concentration of inhibitor.
(§5) [AMC]=vsst+(v0−vss)[1−exp (−kobst)]/kobs (2)
(§6) Where [AMC] is the concentration of product formed over time t, v0 is the initial reaction velocity and vss is the final steady state rate. Values for kobs were then analyzed as a linear function of inhibitor concentration to generate an apparent second order rate constant (kobs/inhibitor concentration or kobs/[I]) describing the time-dependent inhibition. A complete discussion of this kinetic treatment has been fully described (Morrison et al., Adv. Enzymol. Relat. Areas Mol. Biol., 1988, 61, 201).
(§7) Exemplary inhibition data for the compounds used in the present method collected in accordance with the above-described procedure are listed in Table I.

[2] = target: Cruzain (Trypanosoma cruzi, UniProt P25779); experiment: Cysteine protease inhibition, progress curve method, cruzain; type: biochemical; conditions: 4 uM Ac-Lys-Glu-Lys-Leu-Arg-AMC, 100 mM Na acetate pH 5.5, 5 mM cysteine; read-out: Cruzain Ki
Description: as §1, §2, §3, §4, §5, §6, §7

Chain of Cruzain (P25779 123-337): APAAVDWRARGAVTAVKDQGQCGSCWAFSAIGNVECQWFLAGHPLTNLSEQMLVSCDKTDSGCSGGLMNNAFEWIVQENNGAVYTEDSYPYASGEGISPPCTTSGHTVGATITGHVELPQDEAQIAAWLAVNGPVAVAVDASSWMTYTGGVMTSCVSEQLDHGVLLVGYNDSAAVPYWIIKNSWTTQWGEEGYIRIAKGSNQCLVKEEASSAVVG
Chain of Rhodazain (Q95PM0 entry or part of it): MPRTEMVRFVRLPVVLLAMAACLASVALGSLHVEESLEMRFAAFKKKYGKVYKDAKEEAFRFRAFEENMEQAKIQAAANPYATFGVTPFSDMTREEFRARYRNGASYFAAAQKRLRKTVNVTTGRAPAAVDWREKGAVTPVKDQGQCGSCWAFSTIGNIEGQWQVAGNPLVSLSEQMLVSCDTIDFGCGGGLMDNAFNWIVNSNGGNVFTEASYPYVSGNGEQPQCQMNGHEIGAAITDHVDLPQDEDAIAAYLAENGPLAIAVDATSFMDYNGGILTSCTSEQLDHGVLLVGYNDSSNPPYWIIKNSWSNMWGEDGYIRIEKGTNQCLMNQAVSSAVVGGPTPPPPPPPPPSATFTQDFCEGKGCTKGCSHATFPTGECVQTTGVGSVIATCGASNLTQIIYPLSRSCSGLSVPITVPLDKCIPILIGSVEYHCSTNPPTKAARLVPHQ

Molecule | Ki ([1]; Rhodazain Ki (nM)) [nM] | further results
CC(C)C[C@@H](NC(=O)c1cc2cc(F)ccc2o1)C(=O)N[C@H]1CCCN(S(=O)(=O)c2ccccn2)CC1=O (stereo in doubt) [Example 166, 5-Fluoro-benzofuran-2-carboxylic acid {(S)-3-methyl-1-[3-oxo-1-(pyridine-2-sulfonyl)-azepan-4-ylcarbamoyl]-butyl}-amide] | 6 | 
COc1ccc2c(C)c(C(=O)N[C@@H](CC(C)C)C(=O)N[C@H]3CCN(S(=O)(=O)c4cccc[n+]4[O-])CCC3=O)oc2c1 [Example 204, 6-Methoxy-3-methyl-benzofuran-2-carboxylic acid {(S)-3-methyl-1-[3-oxo-1-(1-oxy-pyridine-2-sulfonyl)-azepan-4-ylcarbamoyl]-butyl}-amide] | 4.5 | 
CC(C)C[C@H](NC(=O)c1cc2ccccc2o1)C(=O)N[C@H]1CCCN(S(=O)(=O)c2ncc[nH]2)CC1=O [Example 41, Benzofuran-2-carboxylic acid {(S)-3-methyl-1-[1-(1H-imidazole-2-sulfonyl)-3-oxo-azepan-4-ylcarbamoyl]-butyl}amide] | 2.9 | 
O=C(N[C@H](Cc1ccccc1)C(=O)N[C@@H]1CCCN(S(=O)(=O)c2ccccn2)CC1=O)c1ccc2ccccc2n1 (stereo in doubt) [Example 180, Quinoline-2-carboxylic acid {(S)-1-[3-oxo-1-(pyridine-2-sulfonyl)-azepan-4-ylcarbamoyl]-2-phenyl-ethyl}-amide] | 9.3 | 
CCc1c(C(=O)N[C@@H](CC(C)C)C(=O)N[C@H]2CCN(S(=O)(=O)c3cccc[n+]3[O-])CCC2=O)oc2ccccc12 [Example 202, 3-Ethyl-benzofuran-2-carboxylic acid {(S)-3-methyl-1-[3-oxo-1-(1-oxy-pyridine-2-sulfonyl)-azepan-4-ylcarbamoyl]-butyl}-amide] | 8.7 | 
CC(C)C[C@H](NC(=O)c1ccc(-c2ccc(Cl)cc2)o1)C(=O)N[C@@H]1CCCN(S(=O)(=O)c2ccccn2)CC1=O [Example 65, 5-(4-Chloro-phenyl)-furan-2-carboxylic acid {(S)-3-methyl-1-[3-oxo-1-(pyridine-2-sulfonyl)-azepan-4-ylcarbamoyl]-butyl}amide] | 8.1 | 
Cc1coc(C(=O)N[C@@H](CC(C)C)C(=O)N[C@H]2CCCN(C(=O)Nc3ccccc3F)CC2=O)c1 [Example 222, 4-Methyl-furan-2-carboxylic acid {(S)-1-[1-(2-fluoro-phenylcarbamoyl)-3-oxo-azepan-4-ylcarbamoyl]-3-methyl-butyl}-amide] | 4.9 | 
Cc1c(C(=O)N[C@H](CC(C)C)C(=O)N[C@H]2CCCN(S(=O)(=O)c3cccc[n+]3[O-])CC2=O)oc2cc(F)ccc12 [Example 193, 6-Fluoro-3-methyl-benzofuran-2-carboxylic acid {(S)-3-methyl-1-[3-oxo-1-(1-oxy-pyridine-2-sulfonyl)-azepan-4-ylcarbamoyl]-butyl}-amide] | 8.1 | 
COc1ccc(C(=O)NC(CC(C)C)C(=O)N[C@@H]2CCCN(S(C)(=O)=O)CC2=O)cc1OC (some centres unmarked) [Example 113] | 7.8 | 
CC(C)C[C@@H](NC(=O)c1cnc2ccccc2c1)C(=O)N[C@@H]1CCCN(S(=O)(=O)c2ccccn2)CC1=O [Example 27] | 13 | 
CC(C)C[C@@H](NC(=O)c1ccc(-c2cccc(C(F)(F)F)c2)o1)C(=O)NC1CCCN(C(=O)c2cccc[n+]2[O-])CC1=O (stereo partly drawn) [Example 186, 5-(3-Trifluoromethyl-phenyl)-furan-2-carboxylic acid ((S)-3-methyl-1-{3-oxo-1[-1-(1-oxy-pyridin-2-yl)-methanoyl]-azepan-4-ylcarbamoyl}-butyl)-amide] | 11 | 
Naphthyridine-2-carboxylic acid {(S)-3-methyl-1-[3-oxo-1-(pyridine-2-sulfonyl)-azepan-4-ylcarbamoyl]-butyl}-amide [Example 177] |  | Ki ([1]; read-out: Rhodazain Ki): 9 nM
CC(C)C[C@@H](NC(=O)c1cc2sccc2s1)C(=O)N[C@@H]1CCCN(S(=O)(=O)c2cccc[n+]2[O-])CC1=O [Example 62, Thieno[3,2-b]thiophene-2-carboxylic acid {(S)-3-methyl-1-[3-oxo-1-(1-oxy-pyridine-2-sulfonyl)-azepan-4-ylcarbamoyl]-butyl}amide] | 5.3 | 
CC(C)C[C@@H](NC(=O)c1cc2cc(F)ccc2o1)C(=O)N[C@@H]1CCCN(S(=O)(=O)c2ccccn2)CC1=O (single isomer, unassigned) [Example 168] | 2.7 | 
CC(C)C[C@@H](NC(=O)c1ccc2ccccc2c1)C(=O)N[C@@H]1CCCN(S(=O)(=O)c2ccccn2)CC1=O (stereo in doubt) [Example 17, Naphthalene-2-carboxylic acid {(S)-3-methyl-1-[3-oxo-1-(pyridine-2-sulfonyl)-azepan-4-ylcarbamoyl]butyl}-amide] | 8.3 | 
O=C(N[C@H](CC1CCCCC1)C(=O)N[C@@H]1CCCN(S(=O)(=O)c2ccccn2)CC1=O)c1cc2ccccc2o1 (stereo in doubt) [Example 102, Benzofuran-2-carboxylic acid {(S)-2-cyclohexyl-1-[3-oxo-1-(pyridine-2-sulfonyl)-azepan-4-ylcarbamoyl]-ethyl}-amide] | 3.7 | 
CC(C)C[C@H](NC(=O)c1cnc2ccccc2n1)C(=O)N[C@H]1CCCN(S(=O)(=O)c2nccs2)CC1=O [Example 129, Quinoxaline-2-carboxylic acid {(S)-3-methyl-1-[3-oxo-1-(thiazole-2-sulfonyl)-azepan-4-ylcarbamoyl]-butyl}amide] | 5.6 | 
COc1ccc2oc(C(=O)N[C@@H](CC(C)C)C(=O)N[C@H]3CCCN(S(C)(=O)=O)CC3=O)cc2c1 [Example 81, 5-Methoxy-benzofuran-2-carboxylic acid [(S)-1-(1-methanesulfonyl-3-oxo-azepan-4-ylcarbamoyl)-3-methyl-butyl]-amide] | 7.2 | 
CC(C)C[C@H](NC(=O)c1nc(-c2ccccc2)oc1C(F)(F)F)C(=O)NC1CCCN(S(=O)(=O)c2ccccn2)CC1=O (stereo partly drawn) [Example 72, 2-Phenyl-5-trifluoromethyl-oxazole-4-carboxylic acid {(S)-3-methyl-1-[3-oxo-1-(pyridine-2-sulfonyl)-azepan-4-ylcarbamoyl]-butyl}amide] | 9.9 | 
COc1ccc(CCCCC(=O)NC(CC(C)C)C(=O)NC2CCCN(S(=O)(=O)c3ccccn3)CC2=O)cc1 [Example 122, (S)-2-[5-(4-Methoxy-phenyl)-pentanoylamniol-4-methyl-pentanoic acid [3-oxo-1-(pyridine-2-sulfonyl)-azepan-4-yl[-amide] | 8.8 | 
CC(C)CC(NC(=O)c1ccco1)C(=O)N[C@@H]1CCCN(S(=O)(=O)c2cccc[n+]2[O-])CC1=O (stereo partly drawn) [Example 75, Furan-2-carboxylic acid {(S)-3-methyl-1-[3-oxo-1-(1-oxy-pyridine-2-sulfonyl)-azepan-4-ylcarbamoyl]-butyl}amide] | 7.5 | 
COc1ccc(CC(=O)N[C@@H](CC(C)C)C(=O)NC2CCCN(S(=O)(=O)c3ccccn3)CC2=O)cc1OCc1ccccc1 (some centres unmarked) [Example 123] | 31 | 
CC(C)C[C@@H](NC(=O)c1cc2cc(OCCN3CCOCC3)ccc2o1)C(=O)NC1CCCN(S(=O)(=O)c2cccc[n+]2[O-])CC1=O (stereo partly drawn) [Example 56, 5-(2-Morpholin-4-yl-ethoxy)-benzofuran-2-carboxylic acid {(S)-3-methyl-1-[3-oxo-(1-oxy-pyridine2-sulfonyl)-azepan-4-ylcarbamoyl]-buty}-amide] |  | Ki [2]: 7.8 nM
CC(C)C[C@@H](NC(=O)c1cc(Br)c(Br)s1)C(=O)N[C@@H]1CCCN(S(=O)(=O)c2cccc[n+]2[O-])CC1=O [Example 61, 4,5-Dibromo-thiophene-2-carboxylic acid {(S)-3-methyl-1-[3-oxo-1-(1-oxy-pyridine-2-sulfonyl)-azepan-4-ylcarbamoyl]-butyl}amide] |  | Ki [2]: 40 nM
CC(C)C[C@H](NC(=O)c1ccc2c(c1)OCO2)C(=O)N[C@H]1CCCN(Cc2ccccc2)CC1=O [Example 1, benzo[1,3]dioxole-5-carboxylic acid [(S)-1-(1-benzyl-3-oxoazepan-4-ylcarbamoyl)-3-methyl-butyl]amide] |  | Ki [2]: 58 nM
CC(C)C[C@@H](NC(=O)c1cc2cc(OCCN3CCCC3)ccc2o1)C(=O)N[C@@H]1CCCN(S(=O)(=O)c2ccccc2)CC1=O (stereo in doubt) [Example 8, 5-(2-Pyrrolidin-1-yl-ethoxy)-benzofuran-2-carboxylic acid [(S)-1-(1-benzenesulfonyl-3-oxo-azepan-4-ylcarbamoyl)-3-methyl-butyl]amide] |  | Ki [2]: 8 nM
